Test results reported in patent publication US7592351B2, “Substituted imidazo[1,2-a]pyridine compounds and pharmaceutical preparations containing substituted imidazo[1,2-a]pyridine compounds” (Gruenenthal GmbH, priority 2004, dated 2009).
Structures can show the parent of a compound that is named as a salt.

Experiments:
[1] = target: T1, cannabinoid receptor 1 (CB1) (Rattus norvegicus, UniProt P20272); test: Determination of affinity for cannabinoid receptor 1 (CB1) ([3H] WIN55,212-2 binding, rat cerebellum membranes); parameters: species or system Sprague Dawley rats; conditions: method (c)
T1 construct: Tissue: rat cerebellum; from tissue; host or cells: rat cerebellum membranes
T1 sequence (P20272 whole entry): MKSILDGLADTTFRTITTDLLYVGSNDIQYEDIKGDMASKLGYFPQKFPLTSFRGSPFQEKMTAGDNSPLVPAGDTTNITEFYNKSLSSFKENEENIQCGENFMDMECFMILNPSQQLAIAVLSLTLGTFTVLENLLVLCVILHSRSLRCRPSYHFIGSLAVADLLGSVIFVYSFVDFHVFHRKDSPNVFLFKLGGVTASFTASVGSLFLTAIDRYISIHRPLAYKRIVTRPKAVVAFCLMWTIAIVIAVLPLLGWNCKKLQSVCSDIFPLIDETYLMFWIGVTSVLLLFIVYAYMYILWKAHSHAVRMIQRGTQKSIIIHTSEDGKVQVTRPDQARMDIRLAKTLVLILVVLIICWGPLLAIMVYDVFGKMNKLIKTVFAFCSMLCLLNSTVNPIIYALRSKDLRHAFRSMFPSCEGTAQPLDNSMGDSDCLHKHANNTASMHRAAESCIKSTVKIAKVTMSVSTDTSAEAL
Source text: (c) Determination of Affinity for Cannabinoid Receptor 1 (CB1)
The method was developed on the basis of the publication of D'Ambra et al, J. Med. Chem. 35, 124-135 (1992), but at variance therewith the ligand stated below is used. The disclosure of this article is hereby incorporated by reference.
• Sprague Dawley rats weighing between 150-350 g • (breeder: Charles River Deutschland, 32699 Extertal, Germany) • Ligand: [^3H] WIN55, 212-2; Perkin Elmer, item. no. NET 1058 • Ligand cold: WIN 55, 212-2 mesylate; Tocris; item. no. 1038 • HEPES: Sigma, item no. H-3375 • BSA: Sigma, item no. A-2153 • GF/B filter mats (Brandel Inc., cat. no. FP 100, size 2¼″×12¼″) • Ready Protein scintillating material (item no. 586604, Beckmann, 85716 Unterschlei ? heim) • Tissue: rat cerebellum • Tissue & incubation buffer: 20 mM HEPES pH 7.0. • Filtration buffer: 20 mM HEPES pH 7.0 containing 0.5 mg of BSA/ml which prevents adsorption. • Filter mat softening buffer: 20 mM HEPES pH 7.0 containing 5 mg of BSA/ml. B. Preparation of Cerebellum:
20 ml of ice-cooled buffer are used per 1 g of brain tissue. The brain tissue is disrupted within 30 seconds in the cold buffer with ice cooling at a rotational speed of 6000 rpm using a homogeniser from Kinematica, model Polytron PT-3000 with PT-DA-3012/2 drive unit. The resultant homogenate is then diluted with cold buffer to a ratio of 100 ml/g of tissue. Centrifugation is then performed for 15 minutes at 49,000 g and 4° C. Once centrifugation is complete, the supernatants are decanted and the precipitates resuspended in fresh, cold buffer. Acceptable suspension of the pellets is obtained at only 1000 rpm in the homogeniser with ice cooling and a processing time of at most 60 seconds. This last centrifugation step is repeated twice more (in each case washed with 20 mM HEPES pH 7.0). The precipitated is then suspended with buffer in a ratio of 1:120 (weight/volume).
Incubation is performed for 90 minutes at room temperature, i.e. 25° C. The batches are then rapidly suction filtered with the assistance of the Brandel Cell Harvester (model M-24-R, Adi Hassel, 80809 Munich, Germany) through GF/B filter mats, which have previously been softened in HEPES buffer pH 7.0 containing 5 mg/ml of BSA, and rewashed with 20 ml of filtration buffer (ice-cooled). After transferring the filters into scintillation vials and adding a 10 ml portion of scintillation liquid (Ready Protein) to each and then leaving to stand for 15 hours, the samples are measured in the scintillation counter (Perkin Elmer, model Wallac 1409).

[2] = target: T2, vanilloid receptor (VR1) (Rattus norvegicus, UniProt O35433); test: Functional investigations on vanilloid receptor (VR1): Ca2+ influx FLIPR assay in CHO K1 cells stably transfected with the VR1 gene; format: cell-based, rats; conditions: for inhibition at 10 µM: CHO-K1, read-out: % Inhibition [1]; for % Activation [1]: method (b), substance 10 μM, relative to Ca2+ signal after 10 μM capsaicin, means from 4–5 measurements
T2 construct: expressed in transfected cells; host or cells: CHO K1 cells (ECACC)
T2 sequence (O35433 whole entry): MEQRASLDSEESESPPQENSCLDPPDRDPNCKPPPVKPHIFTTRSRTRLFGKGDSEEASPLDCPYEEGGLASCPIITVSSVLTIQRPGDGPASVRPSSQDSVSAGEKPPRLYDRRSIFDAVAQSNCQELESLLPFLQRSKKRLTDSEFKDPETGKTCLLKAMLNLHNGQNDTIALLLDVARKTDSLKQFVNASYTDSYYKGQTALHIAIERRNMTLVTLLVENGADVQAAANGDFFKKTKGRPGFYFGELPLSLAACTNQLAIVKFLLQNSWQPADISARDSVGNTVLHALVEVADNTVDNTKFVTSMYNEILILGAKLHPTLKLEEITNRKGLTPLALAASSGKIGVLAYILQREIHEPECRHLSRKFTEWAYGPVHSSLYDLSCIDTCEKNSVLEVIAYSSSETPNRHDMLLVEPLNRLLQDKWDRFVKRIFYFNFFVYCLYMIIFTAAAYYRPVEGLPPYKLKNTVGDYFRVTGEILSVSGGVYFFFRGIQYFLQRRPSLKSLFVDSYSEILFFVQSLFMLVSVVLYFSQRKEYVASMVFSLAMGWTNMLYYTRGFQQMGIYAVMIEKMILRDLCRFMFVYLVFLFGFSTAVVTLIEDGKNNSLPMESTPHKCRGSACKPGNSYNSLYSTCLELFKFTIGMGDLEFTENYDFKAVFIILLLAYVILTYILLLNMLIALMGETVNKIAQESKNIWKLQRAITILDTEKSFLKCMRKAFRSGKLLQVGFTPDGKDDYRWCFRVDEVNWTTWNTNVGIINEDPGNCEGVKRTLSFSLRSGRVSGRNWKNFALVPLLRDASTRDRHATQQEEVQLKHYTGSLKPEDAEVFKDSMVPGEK
Source text: (b) Functional Investigations on Vanilloid Receptor (VR1)
The agonistic or antagonistic action of the substances to be investigated on the vanilloid receptor (VR1) may be determined with the following assay. According to this assay, the influx of Ca^2+ through the channel is quantified with the assistance of a Ca^2+-sensitive dye (type Fluo4, Molecular Probes Europe BV, Leiden, Netherlands) in a Fluorescent Imaging Plate Reader (FLIPR, Molecular Devices, Sunnyvale, USA).
Chinese hamster ovary cells (CHO K1 cells, European Collection of Cell Cultures (ECACC), Great Britain) are stably transfected with the VR1 gene. For functional investigations, these cells are plated out onto poly-D-lysine-coated, black 96 well plates with a clear bottom (BD Biosciences, Heidelberg, Germany) at a density of 25,000 cells/well. The cells are incubated overnight at 37° C. and 5% CO2 in a culture medium (Ham's Nutrient Mixture F12, 10 vol. % FCS (foetal calf serum), 18 μg/mL L-proline). On the following day, the cells are incubated with Fluo4 (Fluo4 2 μM, Pluronic F127 0.01 vol. %, Molecular Probes in HBSS (Hank's buffered saline solution), Gibco Invitrogen GmbH, Karlsruhe, Germany) for 30 minutes at 37° C. The plates are then washed 3 times with HBSS buffer and, after a further 15 minutes' incubation at room temperature, used for Ca^2+ measurement in the FLIPR. Ca^2+-dependent fluorescence is here measured before and after addition of the substances to be investigated (wavelength λex=488 nm, λem=540 nm). Quantification proceeds by measuring the highest fluorescence intensity (FC, fluorescence counts) over time.
The FLIPR protocol comprises 2 additions of substance. […] The percentage inhibition in comparison with the maximum achievable inhibition with 10 μM capsazepine is calculated.

[3] = target: T3, vanilloid receptor VR1 (capsaicin receptor) (Rattus norvegicus, UniProt O35433); test: Determination of affinity for vanilloid receptor VR1 ([3H] resiniferatoxin binding, rat spinal cord membranes); parameters: species or system Sprague Dawley rats; conditions: method (a); 10 μM; read-out: % VR1 binding % inhibition at 10 μM [2]
T3 construct: isolated from the spinal cord of male Sprague Dawley rats (breeder: Charles River Deutschland, 32699 Extertal) and used for preparation of the membrane; from tissue; host or cells: rat spinal cord (cervical region and one third of the thoracic region) membranes
T3 sequence (O35433 whole entry): as above
Source text: This method was developed on the basis of the publication by Acs et al., J. Neurochem. 65, 301-308 (1995). The corresponding description is hereby introduced as a reference and is deemed to be part of the disclosure.
• Sprague Dawley rats weighing between 150-300 g • (breeder: Charles River Deutschland, 32699 Extertal, Germany) • HEPES (item no. H-3375, SIGMA) • NaCl (item no. 6400.1000; Merck) • KCl (item no.: 4936.1000; Merck) • HCl (item no.: 1.00317; Merck) • [^3H] resiniferatoxin ([^3H] RTX) (item no.: NET-1132, Perkin-Elmer) • Resiniferatoxin (RTX, cold) (item no.: 550-179-M001, Alexis) • D-Glucose (item no.: 1.08337.1000, Merck) • Sucrose (item no.: S-9378, Sigma) • α1-acid glycoprotein (item no.: G-3643, Sigma) • BSA (bovine serum albumin, item no.: A-2153, Sigma) • GF/B filter mats (Brandel Inc., cat. no. FP 100, size: 2¼″×12¼″)
Buffer: (Concentration values in brackets in each case in mM)
• HEPES (10); KCl (5); NaCl (5.8); CaCl (0.75); MgCl (2.0); D-glucose (12); • sucrose (137). The pH value is adjusted at room temperature using 20% strength HCl. B. Preparation of Membranes
The cervical region and one third of the following thoracic region is isolated from the spinal cord of male Sprague Dawley rats (breeder: Charles River Deutschland, 32699 Extertal) and used for preparation of the membrane. After the combined tissue is weighed, it is homogenized in ice-cooled buffer of the above-stated composition. 20 ml of buffer were used per 1 g of tissue (1:20 weight/volume). Homogenisation performed with a homogeniser from Kinematica, model Polytron PT-3000 with PT-DA-3012/2 drive unit. The spinal cord tissue is disrupted within 60 seconds in the cold buffer with ice cooling at a rotational speed of 6000 rpm. The material is then centrifuged for 10 minutes at 1000 g and +4° C. and the resultant precipitate discarded. The […] in the same volume of buffer of the above-stated composition. The material is then centrifuged for 40 minutes at 48,000 g and +4° C. and the supernatant discarded. The resultant precipitate is resuspended in 30 ml of buffer of the above-stated composition and used in this form in the vanilloid receptor (VR1) assay.
Incubation is performed in the water bath for one hour at 37° C. The samples are then placed in an ice bath for 15 minutes. In order to minimise nonspecific adsorption of the RTX, 100 μg of α1-acid glycoprotein (in 50 μl of buffer) are added to each incubation tube. The samples are then thoroughly mixed on a vortex shaker and left to stand for 10 minutes. The batches are then filtered with the assistance of the model M-24R “Brandel Cell Harvester” through a GF/B glass fiber filter mat which has been presoftened in tris buffer. The filter is then rinsed through 3 times with 4 ml portions of ice-cold HEPES buffer of the above-stated composition for each sample. The filters are transferred into scintillation counter vessels, each is combined with a 10 ml portion of “Ready Protein” scintillating material, and the vessels are closed with screw caps. The vessels are shaken on the vortex shaker and left to stand for at least 15 hours in the fume cupboard. The samples are then measured on the β-counter (model 1409 Wallac, Perkin Elmer, 63110 Rogau-Jügesheim, Germany).

Structure (SMILES)	inhibition at 10 µM [1] [%]	inhibition at 10 µM [2] [%]	inhibition at 10 µM [3] [%]	% Activation [1] [2] [%]
CC(C)(C)CC(C)(C)Nc1c(-c2ccsc2)nc2ccccn12 [Example 2, (1,1,3,3-Tetramethylbutyl)-(2-thiophen-3-yl-imidazo-[1,2-a]pyridin-3-yl)amine hydrochloride]	47	32.2	36	–
Cc1ccn2c(NC(C)(C)CC(C)(C)C)c(-c3ccsc3)nc2c1.Cl [Example 3, (7-Methyl-2-thiophene-3-yl-imidazo[1,2-a]pyridin-3-yl)-(1,1,3,3-tetramethylbutyl)-amine hydrochloride]	35.5	65	–	30.1
Cc1ccn2c(NC(C)(C)CC(C)(C)C)c(-c3ccoc3)nc2c1.Cl [Example 5, (2-Furan-3-yl-7-methyl-imidazo[1,2-a]pyridin-3-yl)-(1,1,3,3-tetramethylbutyl)amine hydrochloride]	32.7	80.7	–	32.4
CC(C)(C)CC(C)(C)Nc1c(-c2ccoc2)nc2ccccn12 [Example 4, (2-Furan-3-yl-imidazo[1,2-a]pyridin-3-yl)-(1,1,3,3-tetramethylbutyl)amine hydrochloride]	35	44.1	–	–
Cc1cc(C)n2c(NC(C)(C)CC(C)(C)C)c(-c3ccsc3)nc2c1 [Example 1, (5,7-Dimethyl-2-thiophen-3-yl-imidazo[1,2-a]pyridin-3-yl)-(1,1,3,3-tetramethylbutyl)-amine hydrochloride]	43	–	42.5	–
